# Earlier results, collected in patent US20030180387A1, “Method for increasing the antioxidative potential of selenium-containing aqueous solutions” (priority 2000, published 2003).
# Where two headings read alike, the source gives them in different places.
smiles,measurement,setting,value
O=[Se](O)O [selenite],"Eo, standard redox potential",acidic environment,−0.740 (acidic environment) Volt
same,"Eo, standard redox potential",basic environment,+0.366 (basic environment) Volt
